Test results reported in patent US8153635B2, “Compounds and compositions as modulators of GPR119 activity” (IRM LLC, priority 2007, dated 2012).

What follows are compounds tested against T1, human GPR119 (Homo sapiens, UniProt Q8TDV5) (assay: Cyclic AMP assay in CHO-hGPR119 cells (HTRF)). Details: increase in intracellular cAMP; GPR119-transfected CHO cells.
T1 construct: expressed in transfected cells; host or cells: Flp-In-CHO cells (Invitrogen, Cat.# R758-07), stably transfected with hGPR119 in pcDNA5/FRT plus pOG44
T1 sequence (Q8TDV5 1-335): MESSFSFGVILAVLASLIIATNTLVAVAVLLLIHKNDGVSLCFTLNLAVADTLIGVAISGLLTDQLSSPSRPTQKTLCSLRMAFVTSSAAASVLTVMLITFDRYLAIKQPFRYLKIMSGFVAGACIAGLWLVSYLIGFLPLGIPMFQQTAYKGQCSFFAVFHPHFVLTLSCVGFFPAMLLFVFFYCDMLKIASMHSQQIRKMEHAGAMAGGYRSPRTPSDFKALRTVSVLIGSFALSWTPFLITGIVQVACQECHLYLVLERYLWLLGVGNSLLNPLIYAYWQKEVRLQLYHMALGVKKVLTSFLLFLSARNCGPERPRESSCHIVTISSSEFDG
Type: cell-based
Protocol: Flp-In-CHO cells (Invitrogen, Cat.# R758-07) are maintained in Ham's F12 medium supplemented with 10% fetal bovine serum, 1% antibiotic mixture and 2 mM L-glutamine. The cells are transfected with a DNA mixture containing human GPR119 (hGPR119) or mouse GPR119 (mGPR119) in the pcDNA5/FRT vector (Invitrogen) and the pOG44 vector (Invitrogen) in a 1:9 ratio using Fugene6 (Roche), according to the manufacturer's instructions. After 48 hours, the medium is changed to medium supplemented with 400 μg/mL hygromycin B to initiate the selection of stably transfected cells. The resultant cell lines are designated CHO-hGPR119 and CHO-mGPR119 respectively.
To test the activity of compounds of the invention on human GPR119, CHO-hGPR119 cells are harvested and resuspended at 300,000 cells/mL in assay media (Ham's F12 medium plus 3% lipid-depleted fetal bovine serum, 1 mM 3-isobutyl-1-methyl-xanthine (IBMX)). Cells (5 μl) are placed in each well of a white 1536-well plate. A compound of the invention (50 nL) diluted in 100% dimethyl sulfoxide (DMSO) is added to each well and the plates are incubated at 37° C. for 30 minutes. cAMP concentrations are then measured using the cAMP dynamic 2 kit (Cisbio Bioassays) according to the manufacturer's instructions. 2.5 μL of diluted cAMP-XL665 is added to each well, followed by 2.5 μL diluted anti-cAMP-Cryptate. The plate is covered and incubated for one hour at room temperature, then read on an Envision plate reader (Perkin Elmer) using the HTRF method with excitation at 337 nm, and emissions measured at 620 nm and […].
`CC(C)OC(=O)N1CCC(CCCOc2ccc(N3CCN(S(C)(=O)=O)CC3)cc2)CC1` [Example A3] showed an EC50 of over 800 nM. With `CC(C)OC(=O)N1CCC(COc2ccc(N3CCN(S(C)(=O)=O)CC3)nn2)CC1` [Example C2, Isopropyl 4-((6-(4-(methylsulfonyl)piperazin-1-yl)pyridazin-3-yloxy)methyl)piperidine-1-carboxylate] the EC50 was over 800 nM. Compound `CC(C)OC(=O)N1CCC(CCc2ccc(N3CCN(S(C)(=O)=O)CC3)nc2)CC1` [Example D2, Isopropyl 4-(2-(6-(4-(methylsulfonyl)piperazin-1-yl)pyridin-3-yl)ethyl)piperidine-1-carboxylate] has an EC50 of 200 to 800 nM. `CC1(OC(=O)N2CCC(COc3cnc(N4CCN(S(C)(=O)=O)CC4)cn3)CC2)CC1` [Example E3, 1-Methylcyclopropyl 4-((5-(4-(methylsulfonyl)piperazin-1-yl)pyrazin-2-yloxy)methyl)piperidine-1-carboxylate] gave an EC50 of under 200 nM. With `CC(C)c1noc(N2CCC(COc3ccc(N4CCN(S(C)(=O)=O)CC4)cn3)CC2)n1` [Example E9, 3-Isopropyl-5-(4-((5-(4-(methylsulfonyl)piperazin-1-yl)pyridin-2-yloxy)methyl)piperidin-1-yl)-1,2,4-oxadiazole] the EC50 was 200 to 800 nM. For `CC(C)(C)OC(=O)N1CCC(COc2cnc(N3CCCN(S(C)(=O)=O)CC3)cn2)CC1` [Example G1, tert-Butyl 4-((5-(4-(methylsulfonyl)-1,4-diazepan-1-yl)pyrazin-2-yloxy)methyl)piperidine-1-carboxylate], the EC50 was over 800 nM. For `CC1(OC(=O)N2CCC(COc3cnc(N4CCC(S(C)(=O)=O)CC4)cn3)CC2)CC1` [Example G4, 1-Methylcyclopropyl 4-((5-(4-(methylsulfonyl)piperidin-1-yl)pyrazin-2-yloxy)methyl)piperidine-1-carboxylate], the EC50 was under 200 nM. With `CCc1cnc(N2CCC(CCCc3nc(N4CCN(S(C)(=O)=O)CC4)no3)CC2)nc1` [Example H3, 5-(3-(1-(5-Ethylpyrimidin-2-yl)piperidin-4-yl)propyl)-3-(4-(methylsulfonyl)piperazin-1-yl)-1,2,4-oxadiazole] the EC50 was under 200 nM. For `CC(C)c1noc(N2CCC(CCc3ncc(N4CCN(S(C)(=O)=O)CC4)s3)CC2)n1` [Example I1, 3-Isopropyl-5-(4-(2-(5-(4-(methylsulfonyl)piperazin-1-yl)thiazol-2-yl)ethyl)piperidin-1-yl)-1,2,4-oxadiazole], the EC50 was under 200 nM. With `CC(C)c1nc(N2CCC(COc3ccc(C4=CCN(S(C)(=O)=O)CC4)cc3)CC2)no1` [Example J7] the EC50 was under 200 nM. In the case of `CS(=O)(=O)N1CCC(c2ccc(OCC3CCN(c4ccc(Cl)cn4)CC3)cc2)CC1` [Example J22], the EC50 is reported as under 200 nM. With `CC1(OC(=O)N2CCC(COc3cnc(N4CCN(S(=O)(=O)CCCN5CCC5)CC4=O)cn3)CC2)CC1` [Example O9] the EC50 was under 200 nM. `CC1(OC(=O)N2CCC(COc3cnc(N4CCN(S(=O)(=O)[C@@H]5CCNC5)CC4=O)cn3)CC2)CC1` [Example O41] was tested, and the EC50 was under 200 nM. `CS(=O)(=O)N1CCC(C(=O)O)(c2ccc(OCC3CCN(c4ncc(F)cn4)CC3)cc2)CC1` [Example T1, 4-(4-((1-(5-fluoropyrimidin-2-yl)piperidin-4-yl)methoxy)phenyl)-1-(methylsulfonyl)piperidine-4-carboxylic acid] gave an EC50 of 200 to 800 nM. For `CC1(OC(=O)N2CCC(COc3cnc(N4CC(NS(C)(=O)=O)C4)cn3)CC2)CC1` [Example U5, 1-Methylcyclopropyl 4-((5-(3-(methylsulfonamido)azetidin-1-yl)pyrazin-2-yloxy)methyl)piperidine-1-carboxylate], the EC50 was under 200 nM. In the case of `CCc1cnc(N2CCC(Oc3ccc4c5c(oc4c3)CN(S(C)(=O)=O)CC5)CC2)nc1` [Example V5, 7-(1-(5-Ethylpyrimidin-2-yl)piperidin-4-yloxy)-2-(methylsulfonyl)-1,2,3,4-tetrahydrobenzofuro[2,3-c]pyridine], the EC50 is reported as under 200 nM.
